Reference: US6184217A (Cephalon, Inc., priority 1997, dated 2001)

How the values were obtained:
[1] = test system: protein kinase C; assay: Protein kinase C inhibition in vitro; assay type: biochemical
[2] = test system: acrylamide-induced peripheral neuropathy; assay: Acrylamide-induced peripheral neuropathy, landing foot spread; assay type: in vivo, Sprague-Dawley rats; settings: 0.3 mg/kg/day s.c.; acrylamide 50 mg/kg IP three times/week for three weeks (FIG. 5)
From the text: Acrylamide produces a "dying back" central-peripheral distal neuropathy in humans and animals. The lesion is a mixed sensory/motor neuropathy characterized by weakness, tremor and ataxia in humans. In animals, acrylamide produces changes in behavior (sensory, motor and proprioceptive), histopathology, electrophysiology and weight loss. In the periphery, large diameter, long axon, Ab fibers are preferentially affected by acrylamide. In rats, acrylamide administration produces an axonopathy as measured by increased landing foot spread (LFS), a measure of proprioception.
It differs from other chemically-induced models (such as chemotherapeutic models) in that the duration is relatively short (3 weeks) and the animals are in relatively good health.
Male Sprague-Dawley rats weighing 250 grams at the start of the experiment were used. Acrylamide (50 mg/kg, IP) was administered three times/week for three weeks. The animals were dropped from a height of 30 cm and the distance between the hindfeet was recorded (Edwards, P. M. and Parker, V. H. (1977) "A simple, sensitive, and objective method for early assessment of acrylamide neuropathy in rats." Toxicol. Appl Pharmacol, 40:589-591). Compound A (0.1, 0.3 or 1.0 mg/kg, s.c. in 5% solutol) was administered once daily for the duration of the experiment.

[3] = target: monoamine oxidase-A (Homo sapiens, UniProt P21397); assay: Monoamine oxidase-A inhibition in vitro; assay type: biochemical; settings: FIG. 1
monoamine oxidase-A, sequence (P21397 whole entry): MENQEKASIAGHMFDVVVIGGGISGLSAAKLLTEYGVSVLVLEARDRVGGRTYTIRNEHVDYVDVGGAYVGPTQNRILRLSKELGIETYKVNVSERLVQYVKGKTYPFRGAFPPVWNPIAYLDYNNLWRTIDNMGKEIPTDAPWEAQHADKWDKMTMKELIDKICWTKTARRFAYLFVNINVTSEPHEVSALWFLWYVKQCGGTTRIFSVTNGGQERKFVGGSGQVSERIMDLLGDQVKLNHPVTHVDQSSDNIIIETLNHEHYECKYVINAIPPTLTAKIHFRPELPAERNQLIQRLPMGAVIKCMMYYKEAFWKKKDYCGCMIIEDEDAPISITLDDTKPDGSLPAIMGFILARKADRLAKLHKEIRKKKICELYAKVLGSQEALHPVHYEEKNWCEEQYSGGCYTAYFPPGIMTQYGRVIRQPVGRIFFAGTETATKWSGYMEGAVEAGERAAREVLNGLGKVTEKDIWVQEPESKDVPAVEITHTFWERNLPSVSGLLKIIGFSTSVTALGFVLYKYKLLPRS

[4] = test system: nbm neurons; assay: Ibotenic acid lesion: Fluoro-Gold-labeled nbm neurons; assay type: in vivo, Sprague-Dawley rats; settings: 0.03 mg/kg s.c. every other day until 18 days post-lesion
From the text: To test directly the ability of Compound A to prevent excitotoxic neuron death, nbm neurons in adult male Sprague-Dawley rats were first labeled with a long-lasting marker. This was done by injecting Fluoro-Gold (FG), a neuronal tracer that is taken up by nerve terminals and transported back to the cell body (Book et al., J. Neuropath. Exp. Neurology, 53:95-102, 1994), into target regions of nbm neurons in the frontal and parietal cortex. 7-10 days later the animals received lesion of the nbm unilaterally, using 5 μg of ibotenic acid. Beginning 18 hours after this lesion, the animals received Compound A (0.03 mg/kg) via subcutaneous injection, every other day until 18 days post-lesion. Tissue sections were collected throughout the entire rostral-caudal extent of the nbm on both sides of the brain, and numbers of nbm neurons with the FG label were counted. The counts were corrected for size differences using standard procedures, and the results expressed as the percent of labeled neurons in the nbm on the lesioned side of each animal relative to the number of labeled neurons in the nbm on the opposite unlesioned side of the brain.

[5] = target: monoamine oxidase-B (Homo sapiens, UniProt P27338); assay: Monoamine oxidase-B inhibition in vitro; settings: FIG. 2
monoamine oxidase-B, sequence (P27338 whole entry): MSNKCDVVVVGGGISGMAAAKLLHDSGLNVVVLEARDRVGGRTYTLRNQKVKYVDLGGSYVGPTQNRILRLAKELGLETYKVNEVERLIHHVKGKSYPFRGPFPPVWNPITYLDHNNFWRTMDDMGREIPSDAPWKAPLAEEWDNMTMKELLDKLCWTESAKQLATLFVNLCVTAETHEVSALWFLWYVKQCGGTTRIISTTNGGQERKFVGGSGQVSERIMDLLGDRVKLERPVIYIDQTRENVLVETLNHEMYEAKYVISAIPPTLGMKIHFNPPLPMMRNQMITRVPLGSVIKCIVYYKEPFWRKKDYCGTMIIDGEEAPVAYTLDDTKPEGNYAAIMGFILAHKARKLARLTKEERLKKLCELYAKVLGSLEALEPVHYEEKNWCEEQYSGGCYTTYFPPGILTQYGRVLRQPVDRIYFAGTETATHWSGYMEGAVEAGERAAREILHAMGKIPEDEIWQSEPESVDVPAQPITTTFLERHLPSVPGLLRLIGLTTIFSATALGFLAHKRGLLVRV

[6] = test system: uptake of catecholamines into nerve endings; assay: Uptake of catecholamines into nerve endings; assay type: biochemical
[7] = test system: cholinergic neurons, striatal neurons, and sensory neurons; settings: cited from earlier work
[8] = test system: striatal tyrosine hydroxylase (dopaminergic neurons); assay: Striatal tyrosine hydroxylase activity in high-dose MPTP-treated mice; assay type: in vivo; settings: MPTP 40 mg/kg s.c., 7 days
Protocol: In a separate experiment, the activities of Compound A were assessed in a high dose MPTP-mouse model. A single 40 mg/kg injection of MPTP produced a 95% depletion in striatal tyrosine hydroxylase enzyme activity 7 days post-injection. Administration of Compound A at daily doses of between 0.03 and 3.0 mg/kg reduced the magnitude of the lesion, in a dose dependent manner.
Mice were treated with MPTP (40 mg/kg; s.c.) 4-6 hrs after the first Compound A injection. Compound A was then injected every day until the end of the experiment which was 7 days in duration. Striata were assessed for tyrosine hydroxylase enzyme activity. Asterisk indicates statistically significant difference (p<0.05) from MPTP-Vehicle treated animals.

[9] = test system: LPS-induced death; assay: Prevention of LPS-induced death in mice; assay type: in vivo; settings: 30 mg/kg ip 2 h before LPS (2 mg/mouse)
Protocol: Forty mice were divided into three groups, two groups consisting of ten mice and one group of twenty mice. Administrations of vehicles, LPS, and Compound A were intraperitoneal. Group 1 (n=10) mice received vehicle (phosphate buffered saline for LPS, 200 μl/mouse) at time zero and vehicle for Compound A (200 μl/mouse) 2 hours later. Group 2 (n=10) mice received the vehicle for Compound A at zero time (200 μl/mouse) and LPS (2 mg in 200 μl/mouse) for two hours later. Group 3 (n=20) received Compound A (30 mg/kg in 200 μl of vehicle) at time zero and LPS (2 mg in 200 μl/mouse) two hours later.

[10] = test system: GABA-ergic neurons in the nucleus basalis magnocellularis; assay: Ibotenic acid lesion: glutamic acid decarboxylase-expressing (GABA-ergic) neurons in nbm; assay type: in vivo, Sprague-Dawley rats
Protocol: Compound A was tested for its ability to prevent depletion (e.g., enhance the survival) of GABA-ergic neurons in the nucleus basalis magnocellularis, using the well-established ibotenic acid lesion mode. Ibotenic acid, an excitotoxin, is known to reduce numbers of GABA-expressing neurons in the nbm region (Lindefors et al., Neurosci. Lett., 135:262-264, 1992; Shaugnessy et al., Brain Res., 637:15-26, 1994). […] The rats were then dosed with Compound A (0.03 mg/kg) via subcutaneous injection beginning 18 hours after the lesion, and continuing q.o.d. until 18 days post-lesion. […] The numbers of neurons expressing glutamic acid decarboxylase were then counted throughout the rostral-caudal extent of the nucleus basalis magnocellularis, in a region where glutamic acid decarboxylase-expressing neurons of the nbm are easily distinguished from glutamic acid decarboxylase-expressing neurons in adjacent structures (white matter medial and ventral to the globus pallidus). The results were expressed as percent glutamic acid decarboxylase-expressing neurons on the lesioned side relative to the number on the opposite, unlesioned side. The results were also calculated separately for the rostral nbm, mid-nmb, and caudal nbm.

CCSCc1ccc2c(c1)c1c3c(c4c5cc(CSCC)ccc5n5c4c1n2C1CC(O)(C(=O)OC)C5(C)O1)CNC3=O (stereo not shown) [Compound A]
protein kinase C inhibition at concentrations inhibiting TNF-α and IL-1β production ([1]; at 139 nM and 261 nM): inactive | fold less active than K-252a against protein kinase C ([1]; compared with K-252a): 570 fold | IC50 ([1]; in vitro): 16 µM | inhibitory activity against PKC ([1]; summary statement): little or no inhibitory activity against PKC | increase in landing foot spread (LFS) produced by acrylamide [2]: reduced the magnitude of the increase in LFS | monoamine oxidase-A inhibition [3]: not a monoamine oxidase-A inhibitor | effect on FG-labeled neurons at mid-lesion and caudal to the lesion [4]: declining effect | Fluoro-Gold-labeled neurons in rostral portion of lesioned nbm vs vehicle only ([4]; over 400 μm from midpoint of lesion, P<0.05 (FIG. 3)): significantly more FG-labeled neurons | monoamine oxidase-B inhibition [5]: not a monoamine oxidase-B inhibitor | block of uptake of catecholamines into nerve endings [6]: found not to inhibit monoamine oxidase A or B in vitro (FIGS. 1 and 2) or block uptake of catecholamines into nerve endings | function of cholinergic neurons, striatal neurons, and sensory neurons [7]: enhance the function of cholinergic neurons, striatal neurons, and sensory neurons | % Unlesioned Control ([8]; 0.03 mg/kg daily): 8 ± 2.5% | Striatal TH Activity (± SEM) ([8]; 0.03 mg/kg daily): 1.8 ± 0.6 | % Unlesioned Control ([8]; 0.3 mg/kg daily): 12 ± 2.5% | Striatal TH Activity (± SEM) ([8]; 0.3 mg/kg daily): 2.7 ± 0.6 | % Unlesioned Control ([8]; 3.0 mg/kg daily): 23 ± 8.0% | Striatal TH Activity (± SEM) ([8]; 3.0 mg/kg daily): 5.3 ± 1.8 | mortality one week after LPS [9]: 80% | mortality at 20 hours after LPS ([9]; LPS alone 90% within 20 hours): 25% | mortality at 42 hours after LPS ([9]; LPS alone 100% by 42 hours): 75% | glutamic acid decarboxylase-expressing neurons vs vehicle-only animals ([10]; mid-nbm or caudal nbm, 0.03 mg/kg s.c. q.o.d.): No statistically significant differences | glutamic acid decarboxylase-expressing neurons on lesioned side relative to unlesioned side ([10]; rostral nbm, 0.03 mg/kg s.c. q.o.d. until 18 days post-lesion, mean, s.e.m., p<0.05 vs vehicle (34 ± 19)): 78 (±16 s.c.m.) percent
